Data: patent US20260356851A1, “TRICYCLIC COMPOUNDS AND USES THEREOF” (HUTCHMED LIMITED, priority 2023, published 2026)

How the values were obtained:
Assay type in all cases: cell-based
[1] = target: T1, pERK1/2 (Thr202/Tyr204), PANC-1 (KRAS G121D) (Homo sapiens, UniProt P01116, G12D); experiment: Assay of intracellular pERK1/2 (Thr202/Tyr204) phosphorylation in PANC-1 cells (KRAS G12D); conditions: pERK1/2, 2 days, read-out: PANC-1 (KRAS G12D) IC50
T1 construct: pERK1/2 HTRF read-out
Summary of the method: (§1)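 HTRF detection of Thr202/Tyr204-phosphorylated ERK1/2 (665/615 nm ratio) in lysates from cells treated 2 days with serially 3-fold diluted compound.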

[2] = target: T2, pERK1/2 (Thr202/Tyr204), NCI-1H358 (KRAS G12C) (Homo sapiens, UniProt P01116, G12C); experiment: Assay of intracellular pERK1/2 (Thr202/Tyr204) phosphorylation in NCI-H358 cells (KRAS G12C); conditions: pERK1/2, 2 days, read-out: NCI-H358 (KRAS G12C) IC50
T2 construct: pERK1/2 HTRF read-out
Summary of the method: as §1

[3] = target: T3, pERK1/2 (Thr202/Tyr204), NCI-1H441 (KRAS G12V) (Homo sapiens, UniProt P01116, G12V); experiment: Assay of intracellular pERK1/2 (Thr202/Tyr204) phosphorylation in NCI-H441 cells (KRAS G12V); conditions: pERK1/2, 2 days, read-out: NCI-H441 (KRAS G12V) IC50
T3 construct: pERK1/2 HTRF read-out
Summary of the method: as §1

T3 sequence (P01116 1-188 isoform P01116-2 G12V): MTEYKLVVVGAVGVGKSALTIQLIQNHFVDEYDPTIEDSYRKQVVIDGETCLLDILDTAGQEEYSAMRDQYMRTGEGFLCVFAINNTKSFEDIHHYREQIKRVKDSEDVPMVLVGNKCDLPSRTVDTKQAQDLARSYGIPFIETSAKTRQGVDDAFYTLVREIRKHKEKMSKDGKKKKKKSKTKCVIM
T1 sequence (P01116 1-188 isoform P01116-2 G12D): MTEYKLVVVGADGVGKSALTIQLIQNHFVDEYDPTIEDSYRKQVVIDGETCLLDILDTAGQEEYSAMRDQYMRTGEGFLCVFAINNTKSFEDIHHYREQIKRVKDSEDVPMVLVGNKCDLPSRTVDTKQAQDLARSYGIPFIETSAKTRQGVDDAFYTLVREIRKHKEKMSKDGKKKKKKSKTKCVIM
T2 sequence (P01116 1-188 isoform P01116-2 G12C): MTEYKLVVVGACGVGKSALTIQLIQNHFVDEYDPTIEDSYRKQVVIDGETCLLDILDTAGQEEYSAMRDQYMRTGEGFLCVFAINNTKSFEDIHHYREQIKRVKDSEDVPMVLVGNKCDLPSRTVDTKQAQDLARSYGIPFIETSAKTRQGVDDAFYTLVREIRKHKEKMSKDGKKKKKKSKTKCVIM

Row | SMILES | IC50 [1] [nM] | IC50 [2] [nM] | IC50 [3] [nM]
1 | [2H]C1([2H])CC[C@@]2(COc3nc4c5c(nc(-c6cc(N)c(F)c(C)c6C(F)(F)F)c(F)c5n3)OCCN4C(C)c3cccnc3N)C[C@@]([2H])(F)CN12 (stereo partly drawn) [Compound 148] | 1 | 0.2 | 0.3
2 | [2H]C1([2H])CN(C(C)c2cccnc2N)c2nc(OC[C@@]34CCCN3C[C@H](F)C4)nc3c(F)c(-c4cc(N)c(F)c(C)c4C(F)(F)F)nc(c23)O1 (stereo partly drawn) [Compound 157] | 2 | 0.3 | 0.5
3 | CC(c1cccnc1N)N1CCOc2nc(-c3cc(N)c(F)c(F)c3F)c(F)c3nc(OC[C@@]45CCCN4C[C@H](F)C5)nc1c23 (stereo partly drawn) [Compound 158] | > 100 | 96 | > 100
4 | Cc1cc(O)cc(-c2nc3c4c(nc(OC[C@@]56CCCN5C[C@H](F)C6)nc4c2F)N(C(C)c2cccnc2N)CCO3)c1C1CC1 (stereo partly drawn) [Compound 159] | 15 | 0.6 | 1
5 | Cc1cc(Nc2nc3c4c(nc(OC[C@@]56CCCN5C[C@H](F)C6)nc4c2F)N(C(C)c2cccnc2N)CCO3)c(F)cc1C(F)(F)F (stereo partly drawn) [Compound 162] | > 100 | > 100 | > 100
6 | Cc1c(F)c(N)cc(-c2nc3c4c(nc(OC[C@]56CCCN5C[C@@H](F)C6)nc4c2F)N(C(C)c2cccnc2N)CCO3)c1C(F)(F)F (stereo partly drawn) [Compound 163] | 6 | 0.2 | 0.4
7 | CC(c1cccnc1N)N1CCOc2nc(-c3cc(N)c(F)c(Cl)c3C(F)(F)F)c(F)c3nc(OC[C@@]45CCCN4C[C@H](F)C5)nc1c23 (stereo partly drawn) [Compound 168] | 2 | 0.2 | 0.4
8 | Cc1c(F)c(N)cc(-c2nc3c4c(nc(OC[C@@]56CCCN5CC(F)(F)C6)nc4c2F)N(C(C)c2cccnc2N)CCO3)c1C(F)(F)F (stereo partly drawn) [Compound 171] | 27 | 0.5 | 2
9 | Cc1cc(N)cc(-c2nc3c4c(nc(OC[C@@]56CCCN5C[C@H](F)C6)nc4c2F)N(C(C)c2cc(F)cnc2N)CCO3)c1C(F)(F)F (stereo partly drawn) [Compound 173] | 7 | 0.5 | 0.8
10 | Cc1c(F)c(N)cc(-c2nc3c4c(nc(OC[C@@]56CCCN5C[C@H](F)C6)nc4c2F)N(C(C)c2cc(F)cnc2N)CCO3)c1C(F)(F)F (stereo partly drawn) [Compound 177] | 11 | 0.7 | 2
11 | Cc1cc(N)cc(-c2nc3c4c(nc(OC[C@@]56CCCN5C[C@H](F)C6)nc4c2F)N(C(C)c2cccnc2N)C2(CC2)CO3)c1C(F)(F)F (stereo partly drawn) [Compound 181] | > 100 | > 100 | > 100
12 | Cc1c(F)c(N)cc(-c2nc3c4c(nc(OC[C@@]56CCCN5C[C@H](F)C6)nc4c2F)N(C2(c4cccnc4N)CC2)CCO3)c1C(F)(F)F [Compound 187] | > 100 | 63 | 44
13 | Cc1c(F)c(N)cc(-c2nc3c4c(nc(OC[C@@]56CCC(=O)N5C[C@H](F)C6)nc4c2F)N(C(C)c2cccnc2N)CCO3)c1C(F)(F)F (stereo partly drawn) [Compound 195] | > 100 | 33 | 99
14 | Cc1c(F)c(N)cc(-c2nc3c4c(nc(OC[C@@]56CCCN5C[C@H](F)C6)nc4c2F)N(C2CC2)CCO3)c1C(F)(F)F [Compound 196] | > 100 | > 100 | > 100
15 | C#Cc1c(F)ccc2cc(O)cc(-c3nc4c5c(nc(OC[C@@]67CCCN6C[C@H](F)C7)nc5c3F)N(C3CC3)CCO4)c12 [Compound 197] | > 100 | > 100 | > 100
16 | CC(c1cccnc1N)N1CCOc2nc(-c3cc(N)c(F)c(Cl)c3C(F)(F)F)c(F)c3nc(OC[C@@H]4C[C@@H](F)CN4C)nc1c23 (stereo partly drawn) [Compound 205] | 11 | 0.3 | 1
17 | Cc1c(F)c(N)cc(-c2nc3c4c(nc(OCC56CCCN5CC5(CC5)C6)nc4c2F)N(C(C)c2cccnc2N)CCO3)c1C(F)(F)F (stereo not drawn) [Compound 218] | 4 | 0.5 | 1
18 | [2H]C1([2H])CC[C@@]2(COc3nc4c5c(nc(-c6cc(N)c(F)c(Cl)c6C(F)(F)F)c(F)c5n3)OC([2H])([2H])C([2H])([2H])N4C(C)c3ccc[n+]([O-])c3N)C[C@@H](F)CN12 (stereo partly drawn) [Compound 224] | > 100 | > 100 | > 100
19 | Cc1cc(N)cc(-c2nc3c4c(nc(OC[C@@]56CCCN5C/C(=C\F)C6)nc4c2F)N(C(C)c2cccnc2N)CCO3)c1C(F)(F)F (stereo partly drawn) [Compound 225] | 0.5 | 0.2 | 0.5
20 | CC(c1cccnc1N)N1CCOc2nc(-c3cc(N)c(F)c(Cl)c3C(F)(F)F)c(F)c3nc(OC[C@@]45CCCN4C/C(=C\F)C5)nc1c23 (stereo partly drawn) [Compound 229] | 0.5 | 0.1 | 0.5
21 | Cc1c(F)c(N)cc(-c2nc3c4c(nc(OC[C@@]56CCCN5C/C(=C\F)C6)nc4c2F)N(C(C)c2cccnc2N)CCO3)c1C(F)(F)F (stereo partly drawn) [Compound 230] | 1 | 0.1 | 0.5
22 | [2H]C1([2H])CC[C@@]2(COc3nc4c5c(nc(-c6cc(N)cc(C)c6C(F)(F)F)c(F)c5n3)OCCN4C(C)c3cccnc3N)C[C@@H](F)CN12 (stereo partly drawn) [Compound 231] | 0.8 | 0.2 | 0.2
23 | CC(c1cccnc1N)N1CCOc2nc(-c3cc(N)c(F)c(Cl)c3Cl)c(F)c3nc(OC[C@@]45CCCN4C[C@H](F)C5)nc1c23 (stereo partly drawn) [Compound 233] | 32 | 1 | 3
24 | Cc1cc(N)cc(-c2nc3c4c(nc(OC[C@@]56CCCN5CC5(CC5(F)F)C6)nc4c2F)N(C(C)c2cccnc2N)CCO3)c1C(F)(F)F (stereo partly drawn) [Compound 237] | 1 | 0.3 | 0.4
25 | Cc1c(F)c(N)cc(-c2nc3c4c(nc(OC[C@@]56CCCN5CC(=C(F)F)C6)nc4c2F)N(C(C)c2cccnc2N)CCO3)c1C(F)(F)F (stereo partly drawn) [Compound 243] | 1 | 0.2 | 0.5
26 | C#Cc1c(F)ccc2cc(O)cc(-c3nc4c5c(nc(OC[C@@]67CCCN6C[C@H](F)C7)nc5c3F)N(C(C)c3cccnc3N)CCO4)c12 (stereo partly drawn) [Compound 259] | 1 | 0.9 | 1
27 | CC(=O)Nc1ncccc1C(C)N1CCOc2nc(-c3cc(N)c(F)c(C)c3C(F)(F)F)c(F)c3nc(OC[C@@]45CCCN4C[C@H](F)C5)nc1c23 (stereo partly drawn) [Compound 266] | > 100 | 95 | > 100

Now from value to compound:

Row | IC50 [1] [nM] | IC50 [2] [nM] | IC50 [3] [nM] | SMILES
28 | 16 | 0.8 | 3 | Cc1cc(N)cc(-c2nc3c4c(nc(OC[C@@]56CCCN5C[C@H](F)C6)nc4c2F)N(C(C)c2cccnc2N)CCO3)c1C1CC1 (stereo partly drawn) [Compound 146]
29 | 7 | 0.3 | 0.9 | [2H]C([2H])(Oc1nc2c3c(nc(-c4cc(N)c(F)c(C)c4C(F)(F)F)c(F)c3n1)OCCN2C(C)c1cccnc1N)[C@@H]1C[C@@H](F)CN1C([2H])([2H])[2H] (stereo partly drawn) [Compound 149]
30 | 1 | 0.2 | 0.3 | [2H]C1([2H])CC[C@@]2(COc3nc4c5c(nc(-c6cc(N)c(F)c(C)c6C(F)(F)F)c(F)c5n3)OCCN4C(C)c3cccnc3N)C[C@@H](F)CN12 (stereo partly drawn) [Compound 150]
31 | 3 | 0.2 | 0.3 | Cc1c(F)c(N)cc(-c2nc3c4c(nc(OC[C@]56CCCN5C[C@H](F)C6)nc4c2F)N(C(C)c2cccnc2N)CCO3)c1C(F)(F)F (stereo partly drawn) [Compound 164]
32 | 47 | 1 | 3 | Cc1c(F)c(N)cc(-c2nc3c4c(nc(OC[C@@]56CCCN5C[C@@H](F)C6)nc4c2F)N(C(C)c2cccnc2N)CCO3)c1C(F)(F)F (stereo partly drawn) [Compound 165]
33 | 35 | 1 | 6 | Cc1c(F)c(N)cc(-c2nc3c4c(nc(OC[C@@]56CCCN5C[C@H](F)C6)nc4c2F)N(Cc2cccnc2N)CCO3)c1C(F)(F)F [Compound 180]
34 | 13 | 0.3 | 1 | Cc1c(F)c(N)cc(-c2nc3c4c(nc(OC[C@@H]5C[C@@H](F)CN5C)nc4c2F)N(C(C)c2cccnc2N)CCO3)c1C(F)(F)F (stereo partly drawn) [Compound 185]
35 | > 100 | > 100 | > 100 | Cc1c(F)c(N)cc(-c2nc3c4c(nc(OC[C@@]56CCCN5C[C@H](F)C6)nc4c2F)N(C2CCNC2)CCO3)c1C(F)(F)F (stereo partly drawn) [Compound 198]
36 | 49 | 1 | 4 | Cc1c(F)c(N)cc(-c2nc3c4c(nc(OC[C@@]56CCCN5C[C@H](F)C6)nc4c2F)N(C(C)c2cccnc2N)CCO3)c1Cl (stereo partly drawn) [Compound 204]
37 | 2 | 0.1 | 0.4 | [2H]C1([2H])CC[C@@]2(COc3nc4c5c(nc(-c6cc(N)c(F)c(Cl)c6C(F)(F)F)c(F)c5n3)OCCN4C(C)c3cccnc3N)C[C@@H](F)CN12 (stereo partly drawn) [Compound 221]
38 | > 100 | 43 | > 100 | Cc1c(F)c(N)cc(-c2nc3c4c(nc(OC[C@@]56CCCN5C[C@H](F)C6)nc4c2F)N(C(C)c2ccc[n+]([O-])c2N)CCO3)c1C(F)(F)F (stereo partly drawn) [Compound 226]
39 | 5 | 0.2 | 0.9 | CC(c1cccnc1N)N1CCOc2nc(-c3cc(N)c(F)c(Cl)c3C3CC3)c(F)c3nc(OC[C@@]45CCCN4C[C@H](F)C5)nc1c23 (stereo partly drawn) [Compound 232]
40 | 40 | 28 | 47 | Cc1cc(N)cc(-c2nc3c4c(nc(OC[C@@]56CCCN5C[C@H](F)C6)nc4c2F)N(C(C)c2cccnc2N)[C@@H](C)CO3)c1C(F)(F)F (stereo partly drawn) [Compound 262]
